Test results: patent US7582789B2, “Ibandronate polymorph” (Hoffmann-La Roche Inc., priority 2005, dated 2009)

What was measured:
[1] = Solubility measurement of crystalline Ibandronate polymorphs in buffer solutions and water (titration); type: physicochemical; settings: 25° C.
Experimental: The solubility of the individual crystalline Ibandronate polymorphs A and B was measured for various solutions. Approximately 10 g of the corresponding polymorph A or B were suspended in three different buffer solutions at pH 2, pH 4 (Titrisol-buffer, citrate/HCl), at pH 7 (methenamine buffer, HCl) or in water. The suspension was stirred for 24 hours at 25° C. and was kept additonally 24 hours without stirring at the same temperature. Solubility was calculated by titration according to the following method.
The residue was filtered, 2 ml of the filtrate taken, 5 ml of Titriplex III solution were added and diluted with water to 100 ml. 2 ml of this solution were added to approximately 0.1 ml of xylenol orange indicator and the pH was adjusted to 6.5 by adding small portions of methenamine buffer solution or 0.1 M hydrochloric acid. The solution is titrated immediately with Th-DCTA-xylenol orange complex until the color changes from yellow to reddish-violet. The endpoint is determined photometrically.

[2] = Relative thermodynamic stability of Ibandronate polymorphs; settings: polymorph A compared with polymorph B

SMILES	solubility ([1]; pH 2 Titrisol-buffer (citrate/HCl), under at least partial conversion to polymorph A)	solubility ([1]; pH 4 Titrisol-buffer (citrate/HCl), under at least partial conversion to polymorph A)	solubility ([1]; pH 7 methenamine buffer/HCl, under at least partial conversion to polymorph A)	solubility ([1]; water, under at least partial conversion to polymorph A, listed as Ibandronate polymorph B, monosodium salt monohydrate)	solubility ([1]; water, under at least partial conversion to polymorph A, monosodium salt monohydrate)	thermodynamic stability relative to the other polymorph [2]	solubility ([1]; pH 2 Titrisol-buffer (citrate/HCl), stirred 24 h + 24 h without stirring)	solubility ([1]; pH 4 Titrisol-buffer (citrate/HCl), stirred 24 h + 24 h without stirring)	solubility ([1]; pH 7 methenamine buffer/HCl, stirred 24 h + 24 h without stirring)	solubility ([1]; water, stirred 24 h + 24 h without stirring)
CCCCCN(C)CCC(O)(P(=O)([O-])O)P(=O)(O)O.O.[Na+] [Polymorph B, 3-(N-methyl-N-pentyl) amino-1-hydroxypropane-1,1-diphosphonic acid monosodium salt monohydrate]	274 g/L	278 g/L	299 g/L	about 279 g/l	279 g/L					
CCCCCN(C)CCC(O)(P(=O)([O-])O)P(=O)(O)O.O.[Na+] [Polymorph A, 3-(N-methyl-N-pentyl) amino-1-hydroxypropane-1,1-diphosphonic acid monosodium salt monohydrate]						thermodynamically more stable	280 g/L	276 g/L	292 g/L	278 g/L
